Results taken from ChEMBL document CHEMBL1201862, “PubChem BioAssay data set” (2004).
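Grown in 96-well plates, cells were treated for 48 hours with each compound at five concentrations. Insufficient inhibition: endpoint recorded as highest concentration tested. Here, GI50 denotes the concentration required for 50% inhibition of growth.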 Active and inactive are the calls of the source. Cut-off read from the data, not from the text of the source: active = GI50 up to about 1.1 µM and inactive = higher.

Columns and labels:
Assay in all cases: NCI-60 cell line screen, 48 h
A498 = tested on: A498
ACHN = tested on: ACHN
COLO 205 = tested on: COLO 205
HOP-62 = tested on: HOP-62
K562 = tested on: K562
KM12 = tested on: KM12
LOX IMVI = tested on: LOX IMVI
NCI-H522 = tested on: NCI-H522
OVCAR-3 = tested on: OVCAR-3
OVCAR-5 = tested on: OVCAR-5
SK-MEL-2 = tested on: SK-MEL-2
SNB-75 = tested on: SNB-75
SR = tested on: SR
DU-145 = tested on: DU-145
HCC 2998 = tested on: HCC 2998
NCI-H226 = tested on: NCI-H226
PC-3 = tested on: PC-3
UO-31 = tested on: UO-31

Measured: GI50

CC[S+](C)c1ccc(-c2c3nc(c(-c4ccc([S+](C)CC)cc4)c4ccc([nH]4)c(-c4ccc([S+](C)CC)cc4)c4nc(c(-c5ccc([S+](C)CC)cc5)c5ccc2[nH]5)C=C4)C=C3)cc1.[O-][Cl+3]([O-])([O-])[O-].[O-][Cl+3]([O-])([O-])[O-].[O-][Cl+3]([O-])([O-])[O-].[O-][Cl+3]([O-])([O-])[O-] (stereo unspecified)
inactive: A498 36.6 µM | ACHN 29.6 µM | COLO 205 35.9 µM | HOP-62 30.1 µM | K562 13.9 µM | KM12 20.3 µM | LOX IMVI 11.3 µM | NCI-H522 29.6 µM | OVCAR-3 56.9 µM | OVCAR-5 21.7 µM | SK-MEL-2 18.2 µM | SNB-75 24.3 µM | SR 18.5 µM

O=[N+]([O-])c1ccc(OCc2nnc(CCCCCCCCc3nnc(COc4ccc([N+](=O)[O-])cc4)o3)o2)cc1
inactive: A498 > 100 µM | ACHN > 100 µM | COLO 205 > 100 µM | DU-145 > 100 µM | HCC 2998 > 100 µM | K562 > 100 µM | KM12 55.3 µM | NCI-H226 > 100 µM | NCI-H522 > 100 µM | OVCAR-3 > 100 µM | OVCAR-5 > 100 µM | PC-3 > 100 µM | SK-MEL-2 > 100 µM | SNB-75 > 100 µM | UO-31 > 100 µM

[N-]=[N+]=NC1C(Br)C(=O)NC(=O)N1[C@H]1C[C@H](O)[C@@H](CO)O1 (stereo partly specified)
inactive: A498 > 100 µM | ACHN > 100 µM | COLO 205 > 100 µM | HCC 2998 > 100 µM | HOP-62 > 100 µM | K562 > 100 µM | KM12 > 100 µM | LOX IMVI > 100 µM | NCI-H522 > 100 µM | OVCAR-3 > 100 µM | OVCAR-5 > 100 µM | SK-MEL-2 > 100 µM | SNB-75 > 100 µM | UO-31 > 100 µM

Fc1ccc(/C(=N/Cc2ccccc2)N2CCOCC2)cc1
inactive: A498 > 100 µM | ACHN > 100 µM | COLO 205 > 100 µM | DU-145 > 100 µM | HOP-62 > 100 µM | K562 > 100 µM | KM12 > 100 µM | LOX IMVI > 100 µM | NCI-H226 > 100 µM | OVCAR-3 > 100 µM | OVCAR-5 > 100 µM | PC-3 > 100 µM | SK-MEL-2 > 100 µM | SNB-75 > 100 µM | SR > 100 µM | UO-31 67.5 µM

O=C1C(Cl)=C(Nc2ccc(S(=O)(=O)O)cc2)C(=O)c2ccccc21
inactive: ACHN 22 µM | COLO 205 17.4 µM | DU-145 16.3 µM | HCC 2998 95.9 µM | HOP-62 36.2 µM | K562 28.2 µM | KM12 22 µM | LOX IMVI 30.3 µM | NCI-H226 34.4 µM | NCI-H522 18.2 µM | OVCAR-3 20.8 µM | OVCAR-5 > 100 µM | PC-3 23 µM | SK-MEL-2 23.7 µM | SNB-75 67.8 µM | SR 32.6 µM | UO-31 15 µM

COc1ccc(-c2nnc(CCCCCCCCc3nnc(-c4ccc(OC)cc4)o3)o2)cc1
inactive: A498 44.4 µM | ACHN > 100 µM | COLO 205 > 100 µM | DU-145 > 100 µM | HCC 2998 > 100 µM | HOP-62 25.4 µM | K562 > 100 µM | KM12 > 100 µM | LOX IMVI 91.4 µM | NCI-H226 > 100 µM | NCI-H522 84.3 µM | OVCAR-3 > 100 µM | OVCAR-5 > 100 µM | PC-3 > 100 µM | SK-MEL-2 > 100 µM | SNB-75 27 µM | UO-31 > 100 µM

COc1ccc(N[S+]([O-])CCc2ccccc2)cc1 (stereo unspecified)
inactive: ACHN > 100 µM | COLO 205 > 100 µM | DU-145 > 100 µM | HCC 2998 94 µM | HOP-62 > 100 µM | K562 73.3 µM | KM12 > 100 µM | LOX IMVI > 100 µM | NCI-H226 > 100 µM | NCI-H522 > 100 µM | OVCAR-3 > 100 µM | OVCAR-5 > 100 µM | SNB-75 > 100 µM | SR > 100 µM | UO-31 > 100 µM

O=C(O)c1cc2ccccc2c(/N=N/c2c([N+](=O)[O-])cc([N+](=O)[O-])cc2S(=O)(=O)O)c1O
inactive: ACHN > 100 µM | COLO 205 > 100 µM | HOP-62 > 100 µM | K562 > 100 µM | KM12 > 100 µM | LOX IMVI > 100 µM | NCI-H226 > 100 µM | NCI-H522 > 100 µM | OVCAR-3 > 100 µM | OVCAR-5 > 100 µM | PC-3 > 100 µM | SK-MEL-2 > 100 µM | SNB-75 > 100 µM | UO-31 > 100 µM

COc1ccc2nc(-c3ccccn3)cc(O)c2c1
inactive: ACHN 92.5 µM | COLO 205 28 µM | HOP-62 > 100 µM | K562 17.4 µM | KM12 26.7 µM | LOX IMVI 41.2 µM | NCI-H522 20.4 µM | OVCAR-5 > 100 µM | SNB-75 18.4 µM | UO-31 18.4 µM
